Measured values from patent publication US6204220A, “Substituted 2-oxo-3-alkynoic acids and methods of use thereof” (Rutgers, The State University of New Jersey, priority 1999, dated 2001).
Several values for one entry are separate records, joined by “and”; a condition that tells them apart may be missing. Identical values can stand only once. Entries after “also recorded” stand apart in the source; their conditions may differ. Like-named read-outs stand apart in the source and are kept apart here.

How the values were obtained:
resolved E1 [1] = biological target: T1, resolved E1 (Escherichia coli, UniProt P0AFG8); experiment: Inactivation of resolved E1 component (activity after reconstitution with E2-E3 subcomplex); assay type: biochemical, E. coli; details: for remaining activity at 3700 µM: 3.7 mM inhibitor; for remaining activity at 500 µM: 15 min, read-out: residual activity of E1; for residual activity of E1: conditions as for fluorescence analysis
T1 construct: made in house; host or cells: resolved from PDHc expressed in E. coli JRG1342
T1 sequence (P0AFG8 2-887): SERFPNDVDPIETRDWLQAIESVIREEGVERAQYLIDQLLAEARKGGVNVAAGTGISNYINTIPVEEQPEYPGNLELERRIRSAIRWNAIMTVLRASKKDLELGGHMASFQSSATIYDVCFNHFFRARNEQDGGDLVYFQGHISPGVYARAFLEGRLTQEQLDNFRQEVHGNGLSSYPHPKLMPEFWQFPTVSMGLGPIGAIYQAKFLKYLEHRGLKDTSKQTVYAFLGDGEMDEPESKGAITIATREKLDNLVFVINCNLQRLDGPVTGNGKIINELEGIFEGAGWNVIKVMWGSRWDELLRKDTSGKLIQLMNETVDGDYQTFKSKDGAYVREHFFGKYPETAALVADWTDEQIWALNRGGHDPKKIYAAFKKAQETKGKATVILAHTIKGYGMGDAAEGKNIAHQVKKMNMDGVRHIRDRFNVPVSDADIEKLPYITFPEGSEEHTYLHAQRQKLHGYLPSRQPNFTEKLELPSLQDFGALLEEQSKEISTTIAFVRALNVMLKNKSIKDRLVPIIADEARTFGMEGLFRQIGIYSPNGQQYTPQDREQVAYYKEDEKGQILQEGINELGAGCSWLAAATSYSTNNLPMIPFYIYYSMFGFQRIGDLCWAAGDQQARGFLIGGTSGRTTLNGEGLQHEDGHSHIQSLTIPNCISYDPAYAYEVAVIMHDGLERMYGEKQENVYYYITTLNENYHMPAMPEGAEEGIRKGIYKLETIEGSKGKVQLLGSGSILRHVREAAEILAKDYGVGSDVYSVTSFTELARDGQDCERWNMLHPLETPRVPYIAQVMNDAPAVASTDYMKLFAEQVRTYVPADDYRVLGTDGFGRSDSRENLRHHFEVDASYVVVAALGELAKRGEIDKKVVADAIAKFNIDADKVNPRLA
Protocol: Resolution of the E1 component from PDHc. […] PDHc was dialyzed against 50 mM Tris buffer, pH 9.0, containing 0.1 mM benzamidine.HCl, 0.15 M NaCl, 0.1 mM PMSF for 2 h, before applying to a column equilibrated and eluted with the same buffer.
Activity and related measurements on PDHc. The overall enzymatic reaction of the PDH complex was assayed using a Varian DMS 300 spectrophotometer or the Cobas Bio (Roche Diagnostics, Somerville, N.J.) automated centrifugal analyzer, monitoring the pyruvate-dependent reduction of NAD^+ at 340 nm. The reaction medium contained in 1 mL (DMS 300) or 0.25 mL (Cobas-Bio) test volume: 0.1 M Tris-HCl, pH 8.0; 1 mM MgCl2; 2 mM sodium pyruvate; 2.5 mM NAD^+; 0.052-0.2 mM coenzyme A; 0.2 mM ThDP; and 2.6 mM DTT at 27° C. The reaction was initiated either by adding enzyme to a mixture of all other components, or by adding CoA.
One unit of activity is defined as the amount of NADH produced (μmol) per min per mg protein. The activity of resolved E1 was measured after reconstitution with excess E2-E3 subcomplex using the NADH assay for PDHc activity.
Inactivation of 1-lip and 3-lip PDH complexes and resolved E1 component by 2-oxo-3-alkynoic acids. Intact 1-lip or 3-lip PDH complexes (0.050-0.1 mg) or resolved E1 component (0.05-0.09 mg) were incubated in the dark with 5 mM MgCl2, […] of 2-oxo-3-alkynoic acids in 20 mM KH2 PO4 buffer, pH 7.5 at room temperature in a total volume 0.5 mL. The initial activity (100%) was assayed prior to the addition of 2-oxo-3-alkynoic acids. Samples (50 μL) were withdrawn periodically and diluted into 1 mL of assay solution, containing all components necessary for assay of the overall activity. The activity of untreated enzyme was stable during the time of inactivation.

resolved E1 [2] = biological target: T1, resolved E1; experiment: Non-oxidative formation of acetoin and acetolactate by resolved E1; assay type: biochemical, E. coli
Protocol: Assay for the non-oxidative formation of acetoin and acetolactate by resolved E1. The reaction mixture contained in 0.8 mL of 50 mM KH2 PO4 buffer, pH 7.5: ThDP (1 mM); MgCl2 (2 mM); pyruvate (2 mM) and resolved E1 (0.04-0.1 mg). After 2 h at 37° C. the reaction was stopped by the addition of either 0.1 mL of 2.5 N NaOH (acetoin assay), or 0.02 mL of 6 N HCl (acetolactate assay), according to Kuwana et al. (1968). Tubes for acetolactate measurement were incubated for an additional 2 h at 37° C. to decarboxylate the acetolactate to acetoin. Acetoin was determined according to Westerfeld (1945). The activity is defined as nmoles of acetoin formed per min per mg protein.

E1 [3] = biological target: T2, E1 (Escherichia coli, UniProt P0AFG8); experiment: Fluorescence measurements on binding to E1; set-up: species or system E. coli
T2 construct: made in house; host or cells: resolved from PDHc expressed in E. coli JRG1342
T2 sequence (P0AFG8 2-887): as above
Protocol: Fluorescence measurements on the binding of 2-oxo-3-butynoic acid to E1. The fluorescence spectrum of apo-E1 (enzyme having no activity in the absence of ThDP) was measured using the SLM8100 spectrofluorimeter at 25° C. The excitation wavelength was 295 nm and the emission spectrum, presumably due to tryptophan, was recorded in the 300-450 nm range in a 1 mL or 3 mL quartz cuvette. The concentration of apo-E1 was 0.05-0.175 mg/mL in 20 mM KH2 PO4 buffer, pH 7.5. The excitation and emission monochromator slit widths were 4 nm. The V.3.0 software and KaleidaGraph computer program were used for data processing. The emission maximum for tryptophan (λ=335 nm) was determined by fitting the points from the peak using the KaleidaGraph computer program.

E1 [4] = biological target: T2, E1; experiment: Quantification of sulfhydryl groups in E1 (DTNB titration); set-up: species or system E. coli
Protocol: Quantification of the fraction of sulfhydryl groups in E1 modified by 2-oxo-3-butynoic acid. The concentration of titratable sulfhydryl groups was determined by treating samples (1 mL) containing E1 (3.02×10^-6 M) in 0.05 M KH2 PO4 buffer, pH 8.0 and 8 M urea, with small aliquots of 5,5'-dithiobis-(2-nitrobenzoic acid) from a 1 mM stock solution, and comparing the absorbencies at 412 nm with those obtained with freshly prepared cysteine solutions in the range 10×10^-6 -50×10^-6 M. Protein concentrations were determined by the Bio-Rad method with bovine serum albumin as standard.

[5] = Chemical stability of inhibitor on incubation in buffer before inactivation test; assay type: physicochemical; details: 1 mM, room temperature, 20 mM KH2PO4 pH 7.5, 1 mM ThDP, 5 mM MgCl2, up to 28 min
Protocol: Kinetics of inactivation of 1-lip and 3-lip PDH complexes and resolved E1 in the presence of 2-oxo-3-alkynoic acids. Three analogs of pyruvate were tested as potential inhibitors of the PDHc and resolved E1: 2-oxo-3-butynoic acid; 2-oxo-3-pentynoic acid; and 2-oxo-3-heptynoic acid. Incubation in the presence of saturating ThDP (1 mM) and MgCl2 (5 mM) with any of the three compounds led to the loss of overall activity in a time- and concentration-dependent fashion. The plots of remaining activity versus time were biphasic: a rapid phase of inactivation was followed either by a slow phase at high concentrations of inhibitor or a plateau at low concentrations of inhibitor, as shown for 1-lip PDHc and resolved E1 with 2-oxo-3-butynoic acid in FIGS. 1A and 1B. The biphasic kinetics may be due to chemical instability of the inhibitors, especially 2-oxo-3-butynoic acid. […] When a fresh portion of 2-oxo-3-butynoicacid was added to PDHc whose activity had plateaued at about 30%, the activity rapidly declined to a new plateau at 6-8% of the original activity. In contrast, the PDHc activity continued to decline at a low rate when fresh 1-lip PDHc was added to the sample that had already declined to 30% (data not shown).

[6] = E1 treated with 3.7 mM inhibitor, At = 11.5%
[7] = E1 with 11.5% overall activity remaining

## C#CC(=O)C(=O)O [2-oxo-3-butynoic acid, 2-Oxo-3-butynoic acid]
Resolved E1 [1]
  residual activity of E1 used for SH titration: 10%
Resolved E1 [1]; 0.11 mM inhibitor
  k for inactivation of E1: 1.73 min⁻¹
Resolved E1 [1]; 0.5 mM inhibitor, 20 min, 1 mM ThDP, 5 mM MgCl2
  inhibition at 500 µM: ~68%
Resolved E1 [1]; after G-25 chromatography, read-out: residual activity of resolved E1 in the overall reaction (At)
  remaining activity at 3700 µM: 11.5%
Resolved E1 [1]; 5 mM DTT added at At = 30%, after 60 min
  At after addition of DTT to previously inactivated E1: 40%
Resolved E1 [1]; 5 mM pyruvate, 1 mM ThDP, 5 mM MgCl2
  protection of E1 component from modification by pyruvate: completely protected
Resolved E1 [1]; 0.2, 0.5 and 1 M hydroxylamine, neutral pH, 100 min or 15 h
  reactivation of inactivated E1 by hydroxylamine: failed to restore activity; also recorded: failure to reactivate
Resolved E1 [1]; 0.5 mM inhibitor, absence of DTT
  remaining activity at 500 µM: ~30%
Resolved E1 [1]; 0.5 mM inhibitor, presence of 5 mM DTT
  remaining activity at 500 µM: 63%
Resolved E1 [1]; E1 1.5 mg/mL, 0.1 mM ThDP, 1 mM MgCl2, read-out: E1 activity remaining before chromatography
  remaining activity at 3700 µM: 16%
Resolved E1 [1]; E1 treated with 3.7 mM inhibitor, At = 11.5%, after G-25
  Pyruvate:NAD+-oxidoreductase reaction: 0.343 ± 0.023 μmol/min/mg protein
Resolved E1 [1]; absence of added ThDP
  residual activity of E1: 78-90%
Resolved E1 [1]; presence of ThDP
  residual activity of E1: 40%
Resolved E1 [1]; dissociation constant for initial reversible complex
  Ki: 8.5 µM
Resolved E1 [1]; rate constant at saturating inhibitor, resolved E1, read-out: ki E1 (converted)
  kinact: 0.0298 s⁻¹
Resolved E1 [1]; read-out: ki/Ki E1
  kinact/KI: 3500 M⁻¹ s⁻¹
Resolved E1 [1]; resolved E1, 0.11 mM inhibitor
  kapp, slow phase of inactivation: 0.039 min⁻¹
Resolved E1 [1]; resolved E1, 1.1 mM inhibitor
  kapp, slow phase of inactivation: 0.078 min⁻¹
Resolved E1 [2]; [6]
  Acetoin production: 1.52 ± 0.08 nmol/min/mg protein
  Acetolactate production: 0.51 ± 0.083 nmol/min/mg protein
Resolved E1 [2]; [7]
  Acetoin production relative to uninhibited E1: 30%
  Acetolactate production relative to uninhibited E1: 36%
E1 [3]; 0.033 mM inhibitor
  decrease of fluorescence intensity: about 35%
E1 [3]; 0.1 mM inhibitor
  decrease of fluorescence intensity: 66%
E1 [3]; 0.11 mM, E1 0.173 mg/ml, ThDP 0.2 mM, MgCl2 1 mM
  decrease of fluorescence intensity of E1 at 335 nm: about 66%
E1 [3]; absence of added ThDP, 0.11 mM
  first-order rate constant of fluorescence intensity decrease, slow phase: 0.042 min⁻¹
E1 [4]; E1 reacted to residual activity of 10%, G-25, DTNB titration, 8 M urea
  SH-groups remaining per monomer: 3.83±0.18 SH-groups per monomer
E1 [4]; difference to untreated E1
  SH-groups modified per monomer / subunit: 1.3 SH-groups per monomer and 1.30±0.35 SH-groups per monomer
[5]
  effect of incubating the inhibitor in buffer on its ability to inactivate 1-lip PDHc: no significant effect
